This note sets out measurements from patent US12195482B1 (Arcus Biosciences, Inc., priority 2022, dated 2025).

The assay has as its target T1, p-AXL (Homo sapiens, UniProt P30530).
T1 construct: expressed in transfected cells; host or cells: HEK293T
T1 sequence (P30530 26-894): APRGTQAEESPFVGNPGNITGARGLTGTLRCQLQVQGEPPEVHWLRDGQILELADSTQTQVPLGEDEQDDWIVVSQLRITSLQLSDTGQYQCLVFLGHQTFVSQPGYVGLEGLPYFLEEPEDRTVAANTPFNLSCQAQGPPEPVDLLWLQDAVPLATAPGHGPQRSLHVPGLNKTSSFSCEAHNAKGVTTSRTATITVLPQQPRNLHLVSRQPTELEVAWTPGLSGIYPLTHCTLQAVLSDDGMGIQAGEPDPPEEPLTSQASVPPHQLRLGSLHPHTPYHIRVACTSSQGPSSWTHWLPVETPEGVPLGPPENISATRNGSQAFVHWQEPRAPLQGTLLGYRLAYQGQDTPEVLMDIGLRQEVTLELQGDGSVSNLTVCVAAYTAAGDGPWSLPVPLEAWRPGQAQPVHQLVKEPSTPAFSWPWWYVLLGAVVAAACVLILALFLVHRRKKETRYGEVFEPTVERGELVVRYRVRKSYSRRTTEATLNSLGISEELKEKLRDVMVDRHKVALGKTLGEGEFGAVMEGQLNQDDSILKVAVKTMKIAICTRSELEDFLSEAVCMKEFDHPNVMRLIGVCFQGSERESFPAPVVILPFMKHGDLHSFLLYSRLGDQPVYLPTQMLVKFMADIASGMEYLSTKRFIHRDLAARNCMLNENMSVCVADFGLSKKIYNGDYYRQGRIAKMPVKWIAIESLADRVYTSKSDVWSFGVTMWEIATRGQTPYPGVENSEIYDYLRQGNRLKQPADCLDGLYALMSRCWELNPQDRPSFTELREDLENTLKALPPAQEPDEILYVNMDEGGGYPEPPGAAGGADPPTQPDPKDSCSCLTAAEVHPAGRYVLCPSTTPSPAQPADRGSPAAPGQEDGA
Nature of the assay: Axl phosphorylation inhibition ELISA in HEK293T cells transfected with NanoLuc-tagged AXL. It counts as cell-based. As to conditions: 1 h compound incubation, media (OptiMEM). A digest of the protocol: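 HEK293T cells transiently transfected one day earlier with NanoLuc-tagged AXL were exposed to 22-point 2-fold compound dilutions for 1 h at 37° C (70,000 cells/well), then lysed. Lysates captured on anti-phospho-tyrosine coated plates for 2 h; bound p-AXL read by NanoLuc luminescence; IC50 from 4-parameter logistic fit.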

The structures appear in SMILES notation. A value given as a limit tells only on which side of the number the result lay.

Take `Cc1cc(C)c(-c2ccc(-c3n[nH]c4ncc(-c5ccc6c(c5)CC[C@@](C)(N5CCC[C@H]5C)CC6)cc34)cc2)nn1` [Example 78, 4,6-Dimethyl-3-(4-{5-[(7S)-7-methyl-7-[(2R)-2-methylpyrrolidin-1-yl]-6,7,8,9-tetrahydro-5H-benzo[7]annulen-2-yl]-1H-pyrazolo[3,4-b]pyridin-3-yl}phenyl)pyridazine]: the IC50 was < 100 nM.

Consider `Cc1cc(C)c(-c2ccc(-c3c[nH]c4ncc(-c5ccc6c(c5)CC[C@@H](N5C7COCC5C7)CC6)cc34)cc2)nn1` [Example 80, 6-[(7S)-2-{3-[4-(4,6-Dimethylpyridazin-3-yl)phenyl]-1H-pyrrolo[2,3-b]pyridin-5-yl}-6,7,8,9-tetrahydro-5H-benzo[7]annulen-7-yl]-3-oxa-6-azabicyclo[3.1.1]heptane], for which the IC50 is < 100 nM.

Take `CC(C)(C#N)c1cccnc1-c1ccc(-c2n[nH]c3ncc(-c4ccc5c(c4)CC[C@@H](N4C6COCC4C6)CC5)cc23)cc1` [Example 85, 2-Methyl-2-[2-[4-[5-[(7S)-7-(3-oxa-6-azabicyclo[3.1.1]heptan-6-yl)-6,7,8,9-tetrahydro-5H-benzo[7]annulen-3-yl]-1H-pyrazolo[3,4-b]pyridine-3-yl]phenyl]pyridine-3-yl]propanenitrile]: the concentration for half-maximal inhibition (IC50) was < 100 nM.

`COc1ccnc(-c2ccc(-c3c[nH]c4ncc(-c5ccc6c(c5)CC[C@@H](N5C7COCC5C7)CC6)cc34)cc2)c1C` [Example 86, 6-[(7S)-3-[3-[4-(4-Methoxy-3-methylpyridin-2-yl)phenyl]-1H-pyrrolo[2,3-b]pyridin-5-yl]-6,7,8,9-tetrahydro-5H-benzo[7]annulen-7-yl]-3-oxa-6-azabicyclo[3.1.1]heptane] showed an IC50 of 100 to 1000 nM.

Compound `COc1ccnc(-c2ccc(-c3n[nH]c4ncc(-c5ccc6c(c5)CC[C@@H](N5C7COCC5C7)CC6)cc34)cc2)c1C` [Example 87, 6-[(7S)-3-[3-[4-(4-Methoxy-3-methylpyridin-2-yl)phenyl]-1H-pyrazolo[3,4-b]pyridin-5-yl]-6,7,8,9-tetrahydro-5H-benzo[7]annulen-7-yl]-3-oxa-6-azabicyclo[3.1.1]heptane] came in with an IC50 of 100 to 1000 nM.

In the case of `FC(F)(F)c1cccnc1-c1ccc(-c2n[nH]c3ncc(-c4ccc5c(c4)CC[C@@H](N4C6COCC4C6)CC5)cc23)cc1` [Example 88, 6-[(7S)-3-[3-[4-[3-(Trifluoromethyl)pyridin-2-yl]phenyl]-1H-pyrazolo[3,4-b]pyridin-5-yl]-6,7,8,9-tetrahydro-5H-benzo[7]annulen-7-yl]-3-oxa-6-azabicyclo[3.1.1]heptane], the IC50 lay within 100 to 1000 nM.

With `FC(F)c1cccnc1-c1ccc(-c2n[nH]c3ncc(-c4ccc5c(c4)CC[C@@H](N4C6COCC4C6)CC5)cc23)cc1` [Example 89, 6-[(7S)-3-[3-[4-[3-(Difluoromethyl)pyridin-2-yl]phenyl]-1H-pyrazolo[3,4-b]pyridin-5-yl]-6,7,8,9-tetrahydro-5H-benzo[7]annulen-7-yl]-3-oxa-6-azabicyclo[3.1.1]heptane], the IC50 was 100 to 1000 nM.

With `C[C@@H]1CCCN1[C@@]1(C)CCc2ccc(-c3cnc4[nH]nc(-c5ccc(-c6ncco6)cc5)c4c3)cc2CC1` [Example 90, 2-(4-{5-[(7S)-7-Methyl-7-[(2R)-2-methylpyrrolidin-1-yl]-6,7,8,9-tetrahydro-5H-benzo[7]annulen-2-yl]-2H-pyrazolo[3,4-b]pyridin-3-yl}phenyl)-1,3-oxazole], the IC50 is < 100 nM.

For `C[C@@H]1CCCN1[C@@]1(C)CCc2ccc(-c3cnc4[nH]nc(-c5ccc(-c6nccs6)cc5)c4c3)cc2CC1` [Example 91, 2-(4-{5-[(7S)-7-Methyl-7-[(2R)-2-methylpyrrolidin-1-yl]-6,7,8,9-tetrahydro-5H-benzo[7]annulen-2-yl]-2H-pyrazolo[3,4-b]pyridin-3-yl}phenyl)-1,3-thiazole], the IC50 lay within 100 to 1000 nM.

As for `CN(C)C(=O)c1ccccc1-c1ccc(-c2c[nH]c3ncc(-c4ccc5c(c4)CC[C@@H](N4C6COCC4C6)CC5)cc23)cc1` [Example 92, N,N-Dimethyl-4′-{5-[(7S)-7-{3-oxa-6-azabicyclo[3.1.1]heptan-6-yl}-6,7,8,9-tetrahydro-5H-benzo[7]annulen-2-yl]-1H-pyrrolo[2,3-b]pyridin-3-yl}-[1,1′-biphenyl]-2-carboxamide], the IC50 was < 100 nM.

Compound `CS(=O)(=O)c1ccccc1-c1ccc(-c2c[nH]c3ncc(-c4ccc5c(c4)CC[C@@H](N4C6COCC4C6)CC5)cc23)cc1` [Example 93, 6-[(7S)-2-(3-{2′-Methanesulfonyl-[1,1′-biphenyl]-4-yl}-1H-pyrrolo[2,3-b]pyridin-5-yl)-6,7,8,9-tetrahydro-5H-benzo[7]annulen-7-yl]-3-oxa-6-azabicyclo[3.1.1]heptane] gave an IC50 of 100 to 1000 nM.
